Values quoted from earlier work in patent US20220023306A1, “USE OF A PPAR-DELTA AGONIST IN THE TREATMENT OF FATTY ACID OXIDATION DISORDERS (FAOD)” (Reneo Pharmaceuticals, Inc., priority 2019, published 2022).
Like-named read-outs stand apart in the source and are kept apart here.

Columns and labels:
[1] = test system: VLCAD; conditions: VLCAD deficient cell line FB833; cited from earlier work
[2] = test system: control myoblasts; conditions: cited from earlier work
[3] = test system: CPT2-deficient myoblasts; conditions: cited from earlier work; for FAO: CPT2-deficient myoblasts
[4] = test system: fibroblasts derived from patients with VLCAD, LCHAD and TFP deficiencies; conditions: cited from earlier work
[5] = test system: CPT2; conditions: cultured patient fibroblasts carrying mild mutations of the CPT2 gene; cited from earlier work

Structure (SMILES): Cc1cc(SCc2sc(-c3ccc(C(F)(F)F)c(F)c3)nc2C)ccc1OCC(=O)O [GW0742, [4-[[[2-[3-Fluoro-4-(trifluoromethyl)phenyl]-4-methyl-5-thiazolyl]methyl]thio]-2-methylphenoxy]acetic acid]
- VLCAD enzyme activity [1]: increase

Structure (SMILES): Cc1cc(SCc2sc(-c3ccc(C(F)(F)F)cc3)nc2C)ccc1OCC(=O)O [GW501516, 2-[2-Methyl-4-[[[4-methyl-2-[4-(trifluoromethyl)phenyl]-5-thiazolyl]methyl]thio]phenoxy]acetic acid]
- VLCAD enzyme activity [1]: increase

Structure (SMILES): Cc1cc(SCc2sc(-c3ccc(C(F)(F)F)c(F)c3)nc2C)ccc1OCC(=O)O [GW 072]
- FAO [2]: stimulated
- long-chain acylcarnitine production ([3]; CPT2-deficient cells): normalized
- residual CPT2 activity ([3]; CPT2-deficient cells): increased
- FAO [3]: restore

Structure (SMILES): CC(C)(Sc1ccc(CCN(CCCCC2CCCCC2)C(=O)NC2CCCCC2)cc1)C(=O)O [GW 7647]
- FAO [3]: no effect

Structure (SMILES): CCCc1c(OCCCOc2ccc(OCC(=O)O)cc2)ccc(C(C)=O)c1O [L-165,0411, [4-[3-(4-Acetyl-3-hydroxy-2-propylphenoxy)propoxy]phenoxy]acetic acid]
- VLCAD enzyme activity [1]: increase

Structure (SMILES): Cc1cnc(-c2ccc(C(F)(F)F)cc2)n1Cc1ccccc1OCCC[C@@H](C)CC(=O)O [MA-0211]
- fatty acid oxidation ([4]; fibroblasts from patients with LCHAD deficiency): improvements
- fatty acid oxidation ([4]; fibroblasts from patients with TFP deficiency): improvements
- fatty acid oxidation ([4]; fibroblasts from patients with VLCAD deficiency): improvements

Structure (SMILES): CC(C)(Oc1ccc(CCNC(=O)c2ccc(Cl)cc2)cc1)C(=O)O [bezafibrate, 2-(4-{2-[(4-Chlorobenzoyl)amino]ethyl}phenoxy)-2-methylpropanoic acid]
- FAO [3]: restore
- enhancement of deficient enzyme (CPT2) [5]: enhancement
